Results as given in the NIST ThermoML archive (doi:10.1007/s10765-011-1087-7).

Legend:
[1] = refractive index (Na D-line) (dimensionless); xn = mol fraction of the nth substance listed; details: 101 kPa, Liquid
[2] = xn = mol fraction of the nth substance listed; details: 101 kPa, Liquid; for speed of sound: Pulse-echo method

CCCCCCC(C)O (stereo unspecified) [2-octanol] + Clc1cccc(Cl)c1
Details | mass density, [2] [kg/m3] | refractive index, [1] | speed of sound, [2] [m/s] | viscosity, [2] [mPa·s]
298.15 K, x2 = 0 | – | – | – | 6.566
298.15 K, x2 = 0.0694 | 840.61 | 1.4312 | 1300.1 | 5.146
298.15 K, x2 = 0.1166 | 857.54 | 1.4366 | 1295.8 | 4.43
298.15 K, x2 = 0.1823 | 881.65 | 1.4436 | 1290 | 3.7
298.15 K, x2 = 0.2395 | 903.41 | 1.4494 | 1285.1 | 3.231
298.15 K, x2 = 0.3143 | 932.89 | 1.4567 | 1278.7 | 2.754
298.15 K, x2 = 0.379 | 959.33 | 1.4631 | 1273.3 | 2.429
298.15 K, x2 = 0.4488 | 988.41 | 1.4698 | 1268 | 2.138
298.15 K, x2 = 0.5084 | 1014.16 | 1.4758 | 1263.7 | 1.934
298.15 K, x2 = 0.582 | 1047.42 | 1.4838 | 1258.9 | 1.715
298.15 K, x2 = 0.6659 | 1086.85 | 1.4939 | 1254.6 | 1.505
298.15 K, x2 = 0.7208 | 1114.21 | 1.5009 | 1252.4 | 1.394
298.15 K, x2 = 0.7847 | 1147.67 | 1.5099 | 1250.7 | 1.279
298.15 K, x2 = 0.8663 | 1194.04 | 1.5224 | 1250.4 | 1.151
298.15 K, x2 = 0.9434 | 1243.52 | 1.5349 | 1251.8 | 1.065
303.15 K, x2 = 0 | – | – | – | 5.178
303.15 K, x2 = 0.0694 | 836.24 | 1.4293 | 1282.4 | 4.351
303.15 K, x2 = 0.1166 | 852.87 | 1.4348 | 1278.1 | 3.821
303.15 K, x2 = 0.1823 | 876.71 | 1.4418 | 1272.3 | 3.246
303.15 K, x2 = 0.2395 | 898.21 | 1.4475 | 1267.5 | 2.847
303.15 K, x2 = 0.3143 | 927.45 | 1.4546 | 1261.2 | 2.412
303.15 K, x2 = 0.379 | 953.45 | 1.4608 | 1256.1 | 2.113
303.15 K, x2 = 0.4488 | 982.39 | 1.4677 | 1251 | 1.857
303.15 K, x2 = 0.5084 | 1007.74 | 1.4738 | 1246.9 | 1.679
303.15 K, x2 = 0.582 | 1040.69 | 1.4819 | 1242.3 | 1.51
303.15 K, x2 = 0.6659 | 1079.96 | 1.4921 | 1238.3 | 1.378
303.15 K, x2 = 0.7208 | 1107.42 | 1.4994 | 1236.2 | 1.302
303.15 K, x2 = 0.7847 | 1141.2 | 1.5084 | 1234.6 | 1.226
303.15 K, x2 = 0.8663 | 1187.75 | 1.5209 | 1234.2 | 1.14
303.15 K, x2 = 0.9434 | 1236.9 | 1.5327 | 1235.6 | 1.042
308.15 K, x2 = 0 | – | – | – | 4.162
308.15 K, x2 = 0.0694 | 832.14 | 1.4273 | 1264.6 | 3.517
308.15 K, x2 = 0.1166 | 848.59 | 1.4327 | 1260.1 | 3.17
308.15 K, x2 = 0.1823 | 871.91 | 1.4397 | 1254.2 | 2.759
308.15 K, x2 = 0.2395 | 892.9 | 1.4455 | 1249.6 | 2.463
308.15 K, x2 = 0.3143 | 920.82 | 1.4527 | 1243.5 | 2.119
308.15 K, x2 = 0.379 | 945.97 | 1.4589 | 1238.9 | 1.892
308.15 K, x2 = 0.4488 | 974.25 | 1.4658 | 1233.9 | 1.673
308.15 K, x2 = 0.5084 | 999.57 | 1.4718 | 1230.2 | 1.512
308.15 K, x2 = 0.582 | 1032.22 | 1.4798 | 1226 | 1.358
308.15 K, x2 = 0.6659 | 1071.96 | 1.4898 | 1221.9 | 1.207
308.15 K, x2 = 0.7208 | 1099.76 | 1.4969 | 1219.4 | 1.132
308.15 K, x2 = 0.7847 | 1134.17 | 1.5057 | 1217.9 | 1.05
308.15 K, x2 = 0.8663 | 1181.99 | 1.518 | 1217.3 | 0.956
308.15 K, x2 = 0.9434 | 1231.4 | 1.5298 | 1219.3 | 0.898
